Data set [1] has as its system MCF-7 cells (human breast carcinoma). As to the kind of experiment: Inhibition of cell proliferation, AlamarBlue fluorescent assay, MCF-7. Type of data set: cell-based. The note with it: MCF7, 48 hours, cancer cell line. How it is done: (§1) The cancer cell lines used in this study included human lung carcinoma (A549), human breast carcinoma (BT20 and MCF-7) and human osteosarcoma (U2OS), with the normal cell lines human peripheral lung epithelial cells (HPL1A) and human mammary epithelial cells (HMEC) serving as controls. A549, BT20, MCF-7, U2OS and HMEC cells were purchased from American Type Culture Collection (ATCC, USA), and HPL1A cells were obtained from Nagoya University, Japan. A549 and BT20 were grown in RPMI-1640 (Sigma), MCF-7 was grown in Dulbecco's Modified Eagle Medium (DMEM) (Sigma) supplemented with 0.01 mg/ml human recombinant insulin (Sigma), U2OS and HMEC were grown in McCoy's 5A (ATCC), and HPL1A was grown in DMEM/F-12K (Sigma). The mediums were supplemented with 10% Fetal Bovine Serum (FBS) (Gibco), 1% penicillin and streptomycin and incubated in a humidified atmosphere with 5% CO2 at 37° C.
(§2) The proliferation inhibition potential of cis- and trans-gnetin H was determined by a fluorescence dye staining method. Cells were seeded in a 96-well tissue culture-treated plate (BD Falcon) at a density of 4000 cells/well, and treated with cis- or trans-gnetin H for 48 hours. AlamarBlue dye (Invitrogen) was used to assess the viability of cells according to the manufacturer's instructions; the fluorescent intensity was read on a SpectraMax M2e microplate reader (Molecular Devices Inc.). […]

The test system of data set [2] is HPL1A cells (human peripheral lung epithelial cells). As to the kind of experiment: Inhibition of cell proliferation, AlamarBlue fluorescent assay, HPL1A normal control. Type of data set: cell-based. The note with it: for inhibitory effects on normal HPL1A cells: 10 uM, up to 48 hours; for IC50: Homo sapiens, HPL1A, 48 hours, AlamarBlue, normal cell line. How it is done: as §1
(§3) The proliferation inhibition potential of cis- and trans-gnetin H was determined by a fluorescence dye staining method. Cells were seeded in a 96-well tissue culture-treated plate (BD Falcon) at a density of 4000 cells/well, and treated with cis- or trans-gnetin H for 48 hours. AlamarBlue dye (Invitrogen) was used to assess the viability of cells according to the manufacturer's instructions; the fluorescent intensity was read on a SpectraMax M2e microplate reader (Molecular Devices Inc.).
(§4) For the determination of IC50 values, cells were treated with a serial dilution (320 μM, 100 μM, 32 μM, 10 μM, 3.2 μM, and 0.32 μM) of cis- or trans-gnetin H for 48 hours. Cell viability was determined with AlamarBlue dye (Invitrogen) and the IC50 values were calculated using non-linear regression analysis.
(Alamar Blue is a resazurin reagent that responds to reducing activity.)

Data set [3] deals with U2OS cells (human osteosarcoma). As to the kind of experiment: Inhibition of cell proliferation, AlamarBlue fluorescent assay, U2OS. The format is cell-based. Particulars: 48 hours, cancer cell line. As to the method:
as §1, §2

Data set [4] concerns BT20 cells (human breast carcinoma). As to the kind of experiment: Inhibition of cell proliferation, AlamarBlue fluorescent assay, BT20. The format is cell-based. Particulars: for inhibition at 10 µM: BT-20, 10 uM, 48-hours treatment; for IC50: BT-20, 48 hours, AlamarBlue, cancer cell line. How it is done:
as §1, §3, §4

Data set [5] is described as follows: Stability testing, 6 months in the dark at room temperature, HPLC. Type of data set: physicochemical. The note with it: 6-month storage in the dark at room temperature, 1 mg/ml in methanol. As to the method:
For stability testing, cis- and trans-gnetin H were dissolved with methanol to a concentration of 1 mg/ml. The stock solutions were sealed in a glass bottle and kept in the dark at room temperature for 6 months and then the purity of the two compounds was tested using the HPLC method previously described (He et al., J. Liq. Chromatog. Rel. Technol. 2013; 36:1708-1724). For conversion testing, cis- and trans-gnetin H were individually illuminated with a 12-watt fluorescent lamp for 2, 4 and 6 hours, and the compounds were identified using HPLC.

In data set [6] the test system is p65 (RelA) nuclear translocation in THP-1 cells. As to the kind of experiment: Indirect immunofluorescence for NF-κB nuclear translocation. Type of data set: cell-based, human. The note with it: pretreated 1 h, LPS 30 min; Bay 11-7082 10 μM. How it is done:
THP-1 cells were maintained in RPMI 1640 medium supplemented with 10% complement-inactivated FBS and 1% penicillin/streptomycin (complete culture medium) at 37° C. with 5% CO2 supplemented. Cell concentrations were adjusted to desired concentrations for each experiment by centrifugation at 500×g for 5 min and resuspended in complete culture medium with 100 nM of PMA. Cell concentration was adjusted to 5×10^5 cells/ml for all assays and 2.5×10^5 cells/ml were used for NF-κB nuclear translocation assay. Cells were seeded onto 96-, 24-, or 12-well plates and incubated for 48 to 72 h to allow for differentiation. Cells were washed with serum-free RPMI 1640 medium before each experiment to remove the undifferentiated cells.
Differentiated THP-1 cells were pretreated with 50 μM of cis-gnetin H, trans-gnetin H, or 10 μM of Bay 11-7082 for 1 h and stimulated with 1 μg/ml of LPS for 30 min. Bay 11-7082 is a compound that inhibits IKK α/β and IκB α phosphorylation and was used as a positive control (Juliana et al., 2010, J. Biol. Chem., 285:9792-802). Treated cells were fixed, permeabilized, blocked, and stained with NF-κB, p65 primary antibody, Dylight 488 conjugated secondary antibody, and Hoechst 33342 dye, sequentially. The Hoechst and DyLight fluorophores detect changes in nuclear morphology (blue fluorescence) and NF-κB distribution (green fluorescence) respectively. Nuclear Translocation Bioapplication software on the Arrayscan VTI reader was used for image acquisition and analysis. For each well, at least 400 cells were automatically acquired and analyzed. The translocation index was calculated by measuring the average intensity difference of NF-icB between the identified cytoplasmic region and nuclear region.

Data set [7] deals with normal cells (HPL1A, HMEC). As to the kind of experiment: IC50 determination, normal cell lines. Type of data set: cell-based. The note with it: Homo sapiens; HPL1A and HMEC, 48 hours; read-out: IC50 values in normal cells (range over cell lines). As to the method: as §1, §2
A further data set has as its system BT20 cells. As to the kind of experiment: Cell cycle analysis by flow cytometry, BT20. Type of data set: cell-based, human. The note with it: 100 μM, 24 hours. How it is done:
A549 and BT20 cells were first synchronized in the G0 phase by culturing cells for 24 hours in serum-free medium and then treated with 100 μM cis- or trans-gnetin H for 24 hours, respectively. Cell cycle analysis was done using propidium iodide (PI) staining as described (An et al., Mol. Cancer Ther. 2007; 6:61-9) and the cells were analyzed on a Guava Flow Cytometer with InCyte software (Millipore).
Background: Flow cytometry measures light scatter and fluorescence of single cells or particles in a stream.

As for `Oc1ccc(/C=C\c2c3c(cc4c2[C@H](c2cc(O)cc(O)c2)[C@@H](c2ccc(O)cc2)O4)O[C@H](c2ccc(O)cc2)[C@H]3c2cc(O)cc(O)c2)cc1` [cis-gnetin H], the IC50 in data set [1] is 10 µM; in data set [2], 91 µM; in data set [3], 9.32 µM; in data set [4] it was 2.15 µM; in data set [7], 25.9 to 91 µM. In data set [2], the “inhibitory effects on normal HPL1A cells” value is listed as “no such obvious inhibitory effects”. In addition, in data set [4], the inhibition at 10 µM was ~99%. For the same compound, the “chemical identity after storage” value in data set [5] is given as “no obvious changes”. Moreover, the p65 nuclear translocation entry in data set [6] is reported as “inhibited the p65 nuclear translocation”. The “G0-G1 subpopulation, BT20” value with BT20 cells is “increased significantly”. Further, the “M and G2-S subpopulation, BT20” value in the data set on BT20 cells is “significant decrease”.

For the compound `Oc1ccc(/C=C/c2c3c(cc4c2[C@H](c2cc(O)cc(O)c2)[C@@H](c2ccc(O)cc2)O4)O[C@H](c2ccc(O)cc2)[C@H]3c2cc(O)cc(O)c2)cc1` [trans-gnetin H], the IC50 in data set [1] was 7.58 µM; in data set [2], 72 µM; in data set [3], 3.1 µM; in data set [4] it was 1.35 µM; in data set [7], 25.9 to 91 µM. In addition, in data set [2], the “inhibitory effects on normal HPL1A cells” value is “no such obvious inhibitory effects”. The inhibition at 10 µM in data set [4] was ~99%. The “chemical identity after storage” value in data set [5] is listed as “no obvious changes”. The p65 nuclear translocation entry in data set [6] is given as “inhibited the p65 nuclear translocation”. In addition, the “G0-G1 subpopulation, BT20” value in the data set with BT20 cells was “increased significantly”. In addition, in the data set with BT20 cells, the “M and G2-S subpopulation, BT20” value is “significant decrease”.

The IC50 is the concentration that gives 50% inhibition. As usually defined, the inhibition is the percentage by which the read-out fell short of the control. The low end stands for little suppression, the high end for strong suppression.
